Measured values as given in patent US9101620B2, “Polymorph of 3-(substituteddihydroisoindolinone-2-yl)-2,6-dioxopiperidine, and pharmaceutical compositions thereof” (Nanjing Cavendish Bio-Engineering Technology Co., Ltd., priority 2009, dated 2015).

Experiments:
Assay type in all cases: physicochemical
[1] = Accelerated test (40° C., 75% relative humidity); details: 40° C. and 75% relative humidity
From the text: (§1) The conditions and methods of related substance test involved in this invention were in accordance with HPLC (Appendix VD of Chinese Pharmacopoeia Edition 2005).
(§2) Chromatographic conditions and system applicability: octadecylsilane bonded silica as the filler; 0.01 mol/L of potassium dihydrogen phosphate (adjusted to pH 3.5 by phosphoric acid)-methanol-acetonitrile (80:15:5) as the mobile phase; detection wavelength was 240 nm; the number of theoretical plates should be not less than 2000, calculated according to the peak of 3-(4-amino-1-oxo-1,3-dihydro-2H-isoindole-2-yl)-piperidine-2,6-dione. The resolution of the peak of 3-(4-amino-1-oxo-1,3-dihydro-2H-isoindole-2-yl)-piperidine-2,6-dione from the peaks of adjacent impurities should meet requirements.
(§3) The raw material of Polymorph I of 3-(4-amino-1-oxo-1,3-dihydro-2H-isoindole-2-yl)-piperidine-2,6-dione (hemihydrate) was hermetically packed in plastic bags of polyethylene film and put in thermostatic and humidostatic incubator at 40±2° C. and 75±5% relative humidity for six months. Sample was tested at the end of the 1st, 2nd, 3rd and 6th month respectively and the results were contrasted with that of the zeroth month. Results were listed in Tab. 5. After accelerated test at 40° C. for six months, the X-ray powder diffraction pattern was shown in FIG. 11; DSC diagram was in FIG. 12-1; TGA diagram was in FIG. 12-2
as §3, with “Polymorph II” for “Polymorph I”, “3-(4-amino-1-oxo-1,3-dihydro-2H-isoindole-2-yl)-piperidine-2,6-dione” for “3-(4-amino-1-oxo-1,3-dihydro-2H-isoindole-2-yl)-piperidine-2,6-dione (hemihydrate)”, “Tab. 10.” for “Tab. 5.”, “FIG. 22;” for “FIG. 11;”, “FIG. 23-1;” for “FIG. 12-1;”, “FIG. 23-2” for “FIG. 12-2”
as §3, with “Polymorph III” for “Polymorph I”, “3-(4-amino-1-oxo-1,3-dihydro-2H-isoindole-2-yl)-piperidine-2,6-dione” for “3-(4-amino-1-oxo-1,3-dihydro-2H-isoindole-2-yl)-piperidine-2,6-dione (hemihydrate)”, “Tab. 15.” for “Tab. 5.”, “FIG. 33;” for “FIG. 11;”, “FIG. 34-1;” for “FIG. 12-1;”, “FIG. 34-2” for “FIG. 12-2”

[2] = Observation test of long-term sample storage (crystal transformation); details: long-term sample storage in high humidity; DSC scanning
[3] = Photostability test (strong illumination); details: for Appearance / Content / Related substance: 4500±500 Lx; for Variation of appearance and content (in words): photostability (illumination) test, summary
From the text: as §1, §2
The Polymorph I of 3-(4-amino-1-oxo-1,3-dihydro-2H-isoindole-2-yl)-piperidine-2,6-dione (hemihydrate) was distributed homogeneously in open petri dish with the thickness of the raw material not more than 5 mm, and the distance was adjusted to make illumination intensity at 4500±500 Lx. Sample was tested at the 5th and 10th day respectively and the results were contrasted with that of the Day 0. Results were listed in Tab. 2. After strong illumination for 10 days, the X-ray powder diffraction pattern was shown in FIG. 5; DSC diagram of the Polymorph I of 3-(4-amino-1-oxo-1,3-dihydro-2H-isoindole-2-yl)-piperidine-2,6-dione (hemihydrate) was in FIG. 6.
(§4) The Polymorph II of 3-(4-amino-1-oxo-1,3-dihydro-2H-isoindole-2-yl)-piperidine-2,6-dione was distributed homogeneously in open petri dish with the thickness of the raw material not more than 5 mm and the distance was adjusted to make illumination intensity at 4500±500 Lx. Sample was tested at the 5th and 10th day respectively and the results were contrasted with that of the Day 0. Results were listed in Tab. 7. After strong illumination for 10 days, the X-ray powder diffraction pattern was shown in FIG. 16; DSC diagram was in FIG. 17
as §4, with “III” for “II”, “12.” for “7.”, “27;” for “16;”, “28” for “17”

[4] = Oxidation destruction (30% H2O2), related substances by HPLC
Experimental: Oxidation destruction: 50 mg of sample weighted accurately was added into measuring flask of 100 mL, and 10 mL 30% H2O2 was added. After standing at room temperature for 2 hour, the mixture was diluted with mobile phase to scale and shook to be homogeneous, and determined by HPLC.
as §2, with “HPLC” for “Chromatographic”, “lenalidomide.” for “3-(4-amino-1-oxo-1,3-dihydro-2H-isoindole-2-yl)-piperidine-2,6-dione.”
Determination method: sample was dissolved in mobile phase to be the solution containing 0.5 mg per 1 mL. 20 μL of such solution was injected into liquid chromatograph and chromatogram was recorded until fourfold the retention time of major component peak. If there were impurities peaks in the chromatogram of sample solution, total impurities and sole impurity were calculated by normalization method on the basis of peak area.

[5] = 30% H2O2, room temperature, 2 hour

| Appearance ([1]; 0 months) | Content ([1]; 0 months) [%] | Related substance ([1]; 0 months) [%] | Appearance ([1]; 1 month) | Content ([1]; 1 month) [%] | Related substance ([1]; 1 month) [%] | Appearance ([1]; 2 months) | Content ([1]; 2 months) [%] | Related substance ([1]; 2 months) [%] | Appearance ([1]; 3 months) | Content ([1]; 3 months) [%] | Related substance ([1]; 3 months) [%] | Appearance ([1]; 6 months) | Content ([1]; 6 months) [%] | Related substance ([1]; 6 months) [%] | Appearance ([3]; 0 days) | Content ([3]; 0 days) [%] | Related substance ([3]; 0 days) [%] | Appearance ([3]; 5 days) | Content ([3]; 5 days) [%] | Compound | other results |
| --- | --- | --- | --- | --- | --- | --- | --- | --- | --- | --- | --- | --- | --- | --- | --- | --- | --- | --- | --- | --- | --- |
| off-white powder | 99.86 | 0.07 | off-white powder | 99.81 | 0.07 | off-white powder | 99.76 | 0.07 | off-white powder | 99.71 | 0.08 | off-white powder | 99.62 | 0.08 | off-white powder | 99.86 | 0.07 | off-white powder | 99.85 | Nc1cccc2c1CN(C1CCC(=O)NC1=O)C2=O (single isomer, unassigned) [Polymorph III, 3-(4-amino-1-oxo-1,3-dihydro-2H-isoindole-2-yl)-piperidine-2,6-dione] | Crystal transformation [2]: a small amount of Polymorph III had transformed to Polymorph I; Related substance ([3]; 5 days): 0.07%; Appearance ([3]; 10 days): off-white powder; Content ([3]; 10 days): 99.85%; Related substance ([3]; 10 days): 0.07%; Variation of appearance and content (in words) [3]: few significant variation |
| off-white powder | 99.89 | 0.09 | off-white powder | 99.85 | 0.09 | off-white powder | 99.77 | 0.10 | off-white powder | 99.72 | 0.10 | off-white powder | 99.68 | 0.12 | off-white powder | 99.89 | 0.09 | off-white powder | 99.89 | Nc1cccc2c1CN(C1CCC(=O)NC1=O)C2=O (single isomer, unassigned) [Polymorph II, 3-(4-amino-1-oxo-1,3-dihydro-2H-isoindole-2-yl)-piperidine-2,6-dione] | Crystal transformation [2]: a small amount of Polymorph II had transformed to Polymorph I; Related substance ([3]; 5 days): 0.09%; Appearance ([3]; 10 days): off-white powder; Content ([3]; 10 days): 99.88%; Related substance ([3]; 10 days): 0.09%; Variation of appearance and content (in words) [3]: few significant variation |
| Off-white powder | 99.87 | 0.05 | Off-white powder | 99.85 | 0.05 | Off-white powder | 99.81 | 0.05 | Off-white powder | 99.78 | 0.06 | Off-white powder | 99.75 | 0.07 | off-white powder | 99.87 | 0.05 | off-white powder | 99.85 | Nc1cccc2c1CN(C1CCC(=O)NC1=O)C2=O (single isomer, unassigned) [Polymorph I, 3-(4-amino-1-oxo-1,3-dihydro-2H-isoindole-2-yl)-piperidine-2,6-dione] | Related substance ([3]; 5 days): 0.05%; Appearance ([3]; 10 days): off-white powder; Content ([3]; 10 days): 99.86%; Related substance ([3]; 10 days): 0.05%; Variation of appearance and content (in words) [3]: few significant variation; Major impurity, peak tR5.649-5.660 [4, 5]: 0.09%; Major impurity, peak tR10.372-10.401 [4, 5]: 0.03%; Major impurity, peak tR32.279-32.318 [4, 5]: 0.01%; Major impurity, peak tR35.063-35.098 [4, 5]: 0.02%; Total impurities generated by oxidation destruction [4, 5]: impurities: 0.16%; Chemical stability (in words) ([4]; oxidating condition / oxidation destroy experiment): better stability |
